From patent US8809333B2, “Imidazole, pyrazole, and triazole derivatives useful as antibacterial agents” (Pfizer Inc., priority 2011, dated 2014)
Values after ≈ are worked out from the molar mass of the structure shown. Where two headings read alike, the source gives them in different places.

Key:
[1] = system: Escherichia coli EC-1: VOGEL, mouse virulent; test: MIC determination (CLSI), EC-1; assay type: cell-based; conditions: Escherichia coli, read-out: EC-1 (MIC)
Method: (§1) The in vitro antibacterial activity of compounds described in the Examples was evaluated by minimum inhibitory concentration (MIC) testing according to Clinical and Laboratory Standards Institute (CLSI) Guidelines. See: Clinical and Laboratory Standards Institute. Methods for Dilution Antimicrobial Susceptibility Tests for Bacteria that Grow Aerobically; Approved Standard-Eighth Edition. CLSI document M7-A8 [ISBN 1-56238-689-1]. Clinical and Laboratory Standards Institute, 940 West Valley Road, Suite 1400, Wayne, Pa. 19087-1898 USA, 2006; also Clinical and Laboratory Standards Institute. Performance Standards for Antimicrobial Susceptibility Testing; Twentieth Informational Supplement. CLSI document M100-S20 [ISBN1-56238-716-2]. Clinical and Laboratory Standards Institute.
(§2) The MIC determination is a standard laboratory method for evaluating the antibacterial activity of a compound. The MIC represents the lowest drug concentration that inhibits visible growth of bacteria following overnight incubation. […] Typically, the drug concentration range is broken down into 2-fold increments (e.g. 0.06 μg/mL, 0.12 μg/mL. 0.25 μg/mL, 0.50 μg/mL, 1.0 μg/mL, etc.) and the various drug concentrations are all individually incubated overnight with approximately the same number of bacteria. The MIC is then determined by visually inspecting the drug effect at each concentration, and identifying the lowest drug concentration that has inhibited bacterial growth as compared to the drug free control. Typically, bacteria continue to grow at drug concentrations lower than the MIC and don't grow at concentrations at and above the MIC.
(§3) The MIC values described in Tables 2 and 3 below were derived from assays wherein each test compound was evaluated in duplicate. In cases where the duplicate values varied by 0-2-fold, the lower of the two values was reported below. Generally speaking, if the duplicate values varied by more than 2-fold, the assay was considered non-valid and was repeated until the variation between duplicate runs was ≦2-fold. In line with the CLSI guidelines referred to above, both control organisms and reference compounds were utilized in each MIC assay to provide proper quality control. MIC values generated with these control organisms and reference compounds were required to fall within a defined range for the assay to be considered valid and be included herein. Those skilled in the art will recognize that MIC values can and do vary from experiment to experiment. Generally speaking, it should be recognized that MIC values often vary +/−2-fold from experiment to experiment. While a single MIC is reported for each compound and each microorganism, the reader should not conclude that each compound was only tested once. Several of the compounds were subjected to multiple tests. The data reported in Tables 2 and 3 is reflective of the compounds relative activity and different MICs may have been generated on these occasions in line with the guidelines described above.
(§4) The following bacterial strains were used in these MIC determinations:
(2) Escherichia coli EC-1: VOGEL, mouse virulent labeled as EC-1 in Table 5;

[2] = system: Klebsiella pneumoniae: Ciprofloxacin-resistant isolate, expresses ESBL, clinical isolate (KP-3700); test: MIC determination (CLSI), KP-3700; assay type: cell-based; conditions: overnight incubation, lower of duplicate values
Method: as §1, §2, §3, §4
(3) Klebsiella pneumoniae: Ciprofloxacin-resistant isolate, expresses extended-spectrum beta-lactamases (ESBL), clinical isolate, labeled as KP-3700 in Table 5.

[3] = system: Pseudomonas aeruginosa UI-18: Wild-type (PA-7); test: MIC determination (CLSI), PA-7; assay type: cell-based; conditions: read-out: PA-7 (MIC)
Method: as §1, §2, §3, §4
(4) Pseudomonas aeruginosa UI-18: Wild-type, labeled as PA-7 in Table 5;

[4] = molecular target: T1, Pseudomonas aeruginosa LpxC enzyme (Pseudomonas aeruginosa, UniProt P47205); test: IC50 assay, LpxC enzyme from P. aeruginosa (BioTrove RapidFire mass spectrometry); assay type: biochemical
T1 construct: made in house; host or cells: E. coli
T1 sequence (P47205 1-303): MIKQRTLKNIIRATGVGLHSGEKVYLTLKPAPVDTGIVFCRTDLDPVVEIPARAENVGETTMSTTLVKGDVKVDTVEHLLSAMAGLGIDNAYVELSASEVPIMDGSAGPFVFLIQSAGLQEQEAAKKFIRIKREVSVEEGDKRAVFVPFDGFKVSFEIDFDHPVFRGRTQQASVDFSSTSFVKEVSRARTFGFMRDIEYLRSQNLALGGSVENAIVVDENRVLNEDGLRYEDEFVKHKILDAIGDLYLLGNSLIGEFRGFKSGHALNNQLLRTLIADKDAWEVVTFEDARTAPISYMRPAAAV
Method: In order to assess the compounds biological activity, selected in-vitro assays were conducted on selected compounds of Formula I. One of the assays measured the compounds ability to disrupt the synthesis of lipopolysaccharide, LPS, which is a component of the outer membrane of Gram-negative bacteria. Disruption of this synthesis is lethal to the bacteria. The assay determined the compound's ability to inhibit LpxC, which is the first enzyme in the biosynthetic pathway for LPS (measured as IC50). Additionally, MICs (minimal inhibitory concentrations) were determined for several bacteria. The specific protocols are described below:
A) IC50 Assay, LpxC Enzyme from P. Aeruginosa Labeled as PA LpxC Enzyme IC50):
At the end of 1 hour, 5 ul of 1 N HCl was added to stop the enzyme reaction, the plates were centrifuged, and then processed with the BioTrove Rapidfire HTMS Mass Spectrometry System. A no-enzyme control was used in calculating the IC50 values from the percent conversion values.

[5] = system: Acinetobacter baumannii/haemolyticus: Multidrug-resistant clinical isolate (AB-3167); test: MIC determination (CLSI), AB-3167; assay type: cell-based; conditions: read-out: AB-3167 (MIC)
Method: as §1, §2, §3, §4
(1) Acinetobacter baumannii/haemolyticus: Multidrug-resistant clinical isolate labeled as AB-3167 in Table 5;

[6] = Pseudomonas aeruginosa UI-18 wild-type, overnight incubation, lower of duplicate values
[7] = P. aeruginosa LpxC enzyme 0.1 nM, 25° C., 1 hour, pH 8.0, read-out: PA: IC50
[8] = Acinetobacter baumannii/haemolyticus multidrug-resistant clinical isolate, overnight incubation, lower of duplicate values

SMILES: Cc1cc(-c2cnn(CCC(C)(C(=O)NO)S(C)(=O)=O)c2)ccc1O (centres unmarked) [Example 50, N-hydroxy-4-[4-(4-hydroxy-3-methylphenyl)-1H-pyrazol-1-yl]-2-methyl-2-(methylsulfonyl)butanamide]
- MIC [1]: > 64 µg/mL
- KP-3700 (MIC) [2]: >64.0 µg/mL
- MIC [3, 6]: > 64 µg/mL
- IC50 [4, 7]: 44.4 nM
- MIC [5, 8]: > 64 µg/mL

SMILES: CC(CCn1cc(CSc2cccc(Cl)c2)nn1)(C(=O)NO)S(C)(=O)=O (centres unmarked) [Example 27, 4-(4-{[(3-chlorophenyl)sulfanyl]methyl}-1H-1,2,3-triazol-1-yl)-N-hydroxy-2-methyl-2-(methylsulfonyl)butanamide]
- MIC [1]: > 64 µg/mL
- KP-3700 (MIC) [2]: >64.0 µg/mL
- MIC [3, 6]: 64 µg/mL (≈ 153 µM)
- IC50 [4, 7]: 12.2 nM
- MIC [5, 8]: > 64 µg/mL

SMILES: CC(CCn1cc(-c2ccc3[nH]c(C(N)=O)cc3c2)cn1)(C(=O)NO)S(C)(=O)=O (centres unmarked) [Example 87, 5-{1-[4-(hydroxyamino)-3-methyl-3-(methylsulfonyl)-4-oxobutyl]-1H-pyrazol-4-yl}-1H-indole-2-carboxamide]
- MIC [1]: > 64 µg/mL
- KP-3700 (MIC) [2]: >64.0 µg/mL
- MIC [3, 6]: > 64 µg/mL
- IC50 [4, 7]: 63.6 nM
- MIC [5, 8]: > 64 µg/mL

SMILES: CC(CCn1cc(-c2ccc(-c3ccno3)cc2)cn1)(C(=O)NO)S(C)(=O)=O (centres unmarked) [Example 73, N-hydroxy-2-methyl-2-(methylsulfonyl)-4-{4-[4-(1,2-oxazol-5-yl)phenyl]-1H-pyrazol-1-yl}butanamide]
- MIC [1]: 4 µg/mL (≈ 9.89 µM)
- KP-3700 (MIC) [2]: 16 µg/mL
- MIC [3, 6]: 2 µg/mL (≈ 4.95 µM)
- IC50 [4, 7]: 0.35 nM
- MIC [5, 8]: > 64 µg/mL

SMILES: CC(CCn1cc(-c2cccc(OC(F)F)c2)cn1)(C(=O)NO)S(C)(=O)=O (centres unmarked) [Example 68, 4-{4-[3-(difluoromethoxy)phenyl]-1H-pyrazol-1-yl}-N-hydroxy-2-methyl-2-(methylsulfonyl)butanamide]
- MIC [1]: 64 µg/mL (≈ 159 µM)
- KP-3700 (MIC) [2]: >64.0 µg/mL
- MIC [3, 6]: 8 µg/mL (≈ 19.8 µM)
- IC50 [4, 7]: 2.1 nM
- MIC [5, 8]: > 64 µg/mL

SMILES: C[C@@](CCn1cc(-c2ccc(Cl)c(F)c2)nn1)(C(=O)NO)S(C)(=O)=O [Example 23, (2R)-4-[4-(4-chloro-3-fluorophenyl)-1H-1,2,3-triazol-1-yl]-N-hydroxy-2-methyl-2-(methylsulfonyl)butanamide]
- MIC [1]: 8 µg/mL (≈ 20.5 µM)
- KP-3700 (MIC) [2]: 64 µg/mL
- MIC [3, 6]: 2 µg/mL (≈ 5.12 µM)
- IC50 [4]: 0.912 nM
- MIC [5, 8]: > 64 µg/mL

SMILES: Cn1nccc1-c1ccc(-c2cnn(CCC(C)(C(=O)NO)S(C)(=O)=O)c2)cc1 (centres unmarked) [Example 82, N-hydroxy-2-methyl-4-{4-[4-(1-methyl-1H-pyrazol-5-yl)phenyl]-1H-pyrazol-1-yl}-2-(methylsulfonyl)butanamide]
- MIC [1]: 8 µg/mL (≈ 19.2 µM)
- KP-3700 (MIC) [2]: 32 µg/mL
- MIC [3, 6]: 16 µg/mL (≈ 38.3 µM)
- IC50 [4, 7]: 3.29 nM
- MIC [5, 8]: > 64 µg/mL

SMILES: CC(CCn1cc(-c2ccc3cnc(N)cc3c2)cn1)(C(=O)NO)S(C)(=O)=O (centres unmarked) [Example 69, 4-[4-(3-aminoisoquinolin-6-yl)-1H-pyrazol-1-yl]-N-hydroxy-2-methyl-2-(methylsulfonyl)butanamide]
- MIC [1]: > 64 µg/mL
- KP-3700 (MIC) [2]: >64.0 µg/mL
- MIC [3, 6]: > 64 µg/mL
- IC50 [4, 7]: 2.57 nM
- MIC [5, 8]: > 64 µg/mL

SMILES: CC(CCn1cc(-c2ccc3cc(C(N)=O)[nH]c3c2)cn1)(C(=O)NO)S(C)(=O)=O (centres unmarked) [Example 86, 6-{1-[4-(hydroxyamino)-3-methyl-3-(methylsulfonyl)-4-oxobutyl]-1H-pyrazol-4-yl}-1H-indole-2-carboxamide]
- MIC [1]: > 64 µg/mL
- KP-3700 (MIC) [2]: >64.0 µg/mL
- MIC [3, 6]: > 64 µg/mL
- IC50 [4, 7]: 14.5 nM
- MIC [5, 8]: > 64 µg/mL

SMILES: C[C@@](CCn1cc(-c2cccc(Cl)c2Cl)nn1)(C(=O)NO)S(C)(=O)=O [Example 19, (2R)-4-[4-(2,3-dichlorophenyl)-1H-1,2,3-triazol-1-yl]-N-hydroxy-2-methyl-2-(methylsulfonyl)butanamide]
- MIC [1]: 8 µg/mL (≈ 19.6 µM)
- KP-3700 (MIC) [2]: 16 µg/mL
- MIC ([3]; Pseudomonas aeruginosa): 4 µg/mL (≈ 9.82 µM)
- IC50 [4]: 1.95 nM
- MIC ([5]; Acinetobacter baumannii): > 64 µg/mL

SMILES: CC(CCn1cc(-c2cccc(-c3cc(N)[nH]n3)c2)cn1)(C(=O)NO)S(C)(=O)=O (centres unmarked) [Example 85, 4-{4-[3-(5-amino-1H-pyrazol-3-yl)phenyl]-1H-pyrazol-1-yl}-N-hydroxy-2-methyl-2-(methylsulfonyl)butanamide]
- MIC [1]: > 64 µg/mL
- KP-3700 (MIC) [2]: >64.0 µg/mL
- MIC [3, 6]: > 64 µg/mL
- IC50 [4, 7]: 58.9 nM
- MIC [5, 8]: > 64 µg/mL

SMILES: Cc1cc(-c2cnn(CCC(C)(C(=O)NO)S(C)(=O)=O)c2)ccc1F (centres unmarked) [Example 52, 4-[4-(4-fluoro-3-methylphenyl)-1H-pyrazol-1-yl]-N-hydroxy-2-methyl-2-(methylsulfonyl)butanamide]
- MIC [1]: 16 µg/mL (≈ 43.3 µM)
- KP-3700 (MIC) [2]: 64 µg/mL
- MIC [3, 6]: 2 µg/mL (≈ 5.41 µM)
- IC50 [4, 7]: 6.93 nM
- MIC [5, 8]: > 64 µg/mL

SMILES: Cc1nccc(-c2ccc(-c3cnn(CCC(C)(C(=O)NO)S(C)(=O)=O)c3)cc2)n1 (centres unmarked) [Example 92, N-hydroxy-2-methyl-4-{4-[4-(2-methylpyrimidin-4-yl)phenyl]-1H-pyrazol-1-yl}-2-(methylsulfonyl)butanamide]
- MIC [1]: 32 µg/mL (≈ 74.5 µM)
- KP-3700 (MIC) [2]: >64.0 µg/mL
- MIC [3, 6]: 32 µg/mL (≈ 74.5 µM)
- IC50 [4, 7]: 5.49 nM
- MIC [5, 8]: > 64 µg/mL

SMILES: COc1cccc(-c2cnn(CCC(C)(C(=O)NO)S(C)(=O)=O)c2)c1 (centres unmarked) [Example 51, N-hydroxy-4-[4-(3-methoxyphenyl)-1H-pyrazol-1-yl]-2-methyl-2-(methylsulfonyl)butanamide]
- MIC [1]: > 64 µg/mL
- KP-3700 (MIC) [2]: >64.0 µg/mL
- MIC [3, 6]: 16 µg/mL (≈ 43.5 µM)
- IC50 [4, 7]: 7.3 nM
- MIC [5, 8]: > 64 µg/mL

SMILES: CC(CCn1cc(-c2ccc3c(c2)C(=O)CC3)cn1)(C(=O)NO)S(C)(=O)=O (centres unmarked) [Example 61, N-hydroxy-2-methyl-2-(methylsulfonyl)-4-[4-(3-oxo-2,3-dihydro-1H-inden-5-yl)-1H-pyrazol-1-yl]butanamide]
- MIC [1]: > 64 µg/mL
- KP-3700 (MIC) [2]: >64.0 µg/mL
- MIC [3, 6]: > 64 µg/mL
- IC50 [4, 7]: 38.6 nM
- MIC [5, 8]: > 64 µg/mL

SMILES: Cc1nc2ccc(-c3cnn(CCC(C)(C(=O)NO)S(C)(=O)=O)c3)cc2s1 (centres unmarked) [Example 79, N-hydroxy-2-methyl-4-[4-(2-methyl-1,3-benzothiazol-6-yl)-1H-pyrazol-1-yl]-2-(methylsulfonyl)butanamide]
- MIC [1]: 64 µg/mL (≈ 157 µM)
- KP-3700 (MIC) [2]: >64.0 µg/mL
- MIC [3, 6]: 16 µg/mL (≈ 39.2 µM)
- IC50 [4, 7]: 6.22 nM
- MIC [5, 8]: > 64 µg/mL
